≈ marks a conversion by molar mass, not a printed value.
Assays:
Klebsiella aerogenes [1] = assay: Antimicrobial activity against multidrug resistant Enterobacter aerogenes isolate 1 by broth dilution method; format: functional
Klebsiella aerogenes [2] = assay: Antimicrobial activity against multidrug resistant Enterobacter aerogenes isolate 2 by broth dilution method; format: functional
Klebsiella aerogenes [3] = assay: Antimicrobial activity against multidrug resistant Enterobacter aerogenes isolate 3 by broth dilution method; format: functional
Klebsiella aerogenes [4] = assay: Antimicrobial activity against multidrug resistant Enterobacter aerogenes isolate 4 by broth dilution method; format: functional
Klebsiella aerogenes [5] = assay: Antimicrobial activity against multidrug resistant Enterobacter aerogenes isolate 5 by broth dilution method; format: functional
Klebsiella aerogenes [6] = assay: Antimicrobial activity against multidrug resistant Enterobacter aerogenes isolate 6 by broth dilution method; format: functional
Klebsiella aerogenes [7] = assay: Antimicrobial activity against multidrug resistant Enterobacter aerogenes isolate 7 by broth dilution method; format: functional
Klebsiella aerogenes [8] = assay: Antimicrobial activity against multidrug resistant Enterobacter aerogenes isolate 8 by broth dilution method; format: functional
Klebsiella aerogenes [9] = assay: Antimicrobial activity against multidrug resistant Enterobacter aerogenes isolate 9 by broth dilution method; format: functional
Klebsiella aerogenes [10] = assay: Antimicrobial activity against multidrug resistant Enterobacter aerogenes isolate 10 by broth dilution method; format: functional
Klebsiella aerogenes [11] = assay: Antimicrobial activity against multidrug resistant Enterobacter aerogenes isolate 11 by broth dilution method; format: functional
Klebsiella aerogenes [12] = assay: Antimicrobial activity against multidrug resistant Enterobacter aerogenes isolate 12 by broth dilution method; format: functional
Klebsiella aerogenes [13] = assay: Antimicrobial activity against multidrug resistant Enterobacter aerogenes isolate 13 by broth dilution method; format: functional
Klebsiella aerogenes [14] = assay: Antimicrobial activity against multidrug resistant Enterobacter aerogenes isolate 14 by broth dilution method; format: functional
Klebsiella aerogenes [15] = assay: Antimicrobial activity against multidrug resistant Enterobacter aerogenes isolate 15 by broth dilution method; format: functional
Klebsiella aerogenes [16] = assay: Antimicrobial activity against multidrug resistant Enterobacter aerogenes isolate 16 by broth dilution method; format: functional
Klebsiella aerogenes [17] = assay: Antimicrobial activity against multidrug resistant Enterobacter aerogenes isolate 17 by broth dilution method; format: functional
Klebsiella aerogenes [18] = assay: Antimicrobial activity against multidrug resistant Enterobacter aerogenes isolate 18 by broth dilution method; format: functional
Klebsiella aerogenes [19] = assay: Antimicrobial activity against multidrug resistant Enterobacter aerogenes isolate 19 by broth dilution method; format: functional
Klebsiella aerogenes [20] = assay: Antimicrobial activity against multidrug resistant Enterobacter aerogenes isolate 20 by broth dilution method; format: functional
Klebsiella aerogenes [21] = assay: Antimicrobial activity against multidrug resistant Enterobacter aerogenes isolate 21 by broth dilution method; format: functional
Klebsiella aerogenes [22] = assay: Antimicrobial activity against multidrug resistant Enterobacter aerogenes isolate 22 by broth dilution method; format: functional
Klebsiella aerogenes [23] = assay: Antimicrobial activity against multidrug resistant Enterobacter aerogenes isolate 23 by broth dilution method; format: functional
Klebsiella aerogenes [24] = assay: Antimicrobial activity against multidrug resistant Enterobacter aerogenes isolate 24 by broth dilution method; format: functional
Klebsiella aerogenes [25] = assay: Antimicrobial activity against multidrug resistant Enterobacter aerogenes isolate 25 by broth dilution method; format: functional
Klebsiella aerogenes [26] = assay: Antimicrobial activity against multidrug resistant Enterobacter aerogenes isolate 26 by broth dilution method; format: functional
Klebsiella aerogenes [27] = assay: Antimicrobial activity against multidrug resistant Enterobacter aerogenes isolate 27 by broth dilution method; format: functional
Klebsiella pneumoniae [28] = assay: Antimicrobial activity against multidrug resistant Klebsiella pneumoniae ATCC 11296 by broth dilution method; format: functional
Klebsiella pneumoniae [29] = assay: Antimicrobial activity against multidrug resistant Klebsiella pneumoniae isolate 1 by broth dilution method; format: functional
Klebsiella pneumoniae [30] = assay: Antimicrobial activity against multidrug resistant Klebsiella pneumoniae isolate 2 by broth dilution method; format: functional
Klebsiella pneumoniae [31] = assay: Antimicrobial activity against multidrug resistant Klebsiella pneumoniae isolate 3 by broth dilution method; format: functional
Klebsiella pneumoniae [32] = assay: Antimicrobial activity against multidrug resistant Klebsiella pneumoniae isolate 4 by broth dilution method; format: functional
Klebsiella pneumoniae [33] = assay: Antimicrobial activity against multidrug resistant Klebsiella pneumoniae isolate 5 by broth dilution method; format: functional
Klebsiella pneumoniae [34] = assay: Antimicrobial activity against multidrug resistant Klebsiella pneumoniae isolate 6 by broth dilution method; format: functional
Klebsiella pneumoniae [35] = assay: Antimicrobial activity against multidrug resistant Klebsiella pneumoniae isolate 7 by broth dilution method; format: functional
Klebsiella pneumoniae [36] = assay: Antimicrobial activity against multidrug resistant Klebsiella pneumoniae isolate 8 by broth dilution method; format: functional
Klebsiella pneumoniae [37] = assay: Antimicrobial activity against multidrug resistant Klebsiella pneumoniae isolate 9 by broth dilution method; format: functional
Klebsiella pneumoniae [38] = assay: Antimicrobial activity against multidrug resistant Klebsiella pneumoniae isolate 10 by broth dilution method; format: functional
Klebsiella pneumoniae [39] = assay: Antimicrobial activity against multidrug resistant Klebsiella pneumoniae isolate 11 by broth dilution method; format: functional
Klebsiella pneumoniae [40] = assay: Antimicrobial activity against multidrug resistant Klebsiella pneumoniae isolate 12 by broth dilution method; format: functional
Klebsiella pneumoniae [41] = assay: Antimicrobial activity against multidrug resistant Klebsiella pneumoniae isolate 13 by broth dilution method; format: functional
Klebsiella pneumoniae [42] = assay: Antimicrobial activity against multidrug resistant Klebsiella pneumoniae isolate 15 by broth dilution method; format: functional
Klebsiella pneumoniae [43] = assay: Antimicrobial activity against multidrug resistant Klebsiella pneumoniae isolate 16 by broth dilution method; format: functional
Klebsiella aerogenes [44] = assay: Antimicrobial activity against multidrug resistant Enterobacter aerogenes ATCC 15038 by broth dilution method; format: functional
Klebsiella aerogenes [45] = assay: Antimicrobial activity against multidrug resistant Enterobacter aerogenes ATCC 15038 harboring pDrive plasmid by broth dilution method; format: functional
Klebsiella aerogenes [46] = assay: Antimicrobial activity against multidrug resistant Enterobacter aerogenes ATCC 15038 harboring pACM204 plasmid by broth dilution method; format: functional
Klebsiella aerogenes [47] = assay: Antimicrobial activity against multidrug resistant Enterobacter aerogenes ATCC 15038 harboring pDrive plasmid expressing ampC gene by broth dilution method; format: functional
Escherichia coli [48] = assay: Antimicrobial activity against multidrug resistant Escherichia coli ATCC 35218 by broth dilution method; format: functional
Escherichia coli [49] = assay: microbe, parasite or virus in culture; settings: DH5[alpha]
Description: Antimicrobial activity against multidrug resistant Escherichia coli DH5[alpha] by broth dilution method

Escherichia coli [50] = assay: microbe, parasite or virus in culture; settings: DH5[alpha]; remark: listed apart in the source
Description: Antimicrobial activity against multidrug resistant Escherichia coli DH5[alpha] harboring pDrive plasmid by broth dilution method

Escherichia coli [51] = assay: microbe, parasite or virus in culture; settings: DH5[alpha]; remark: listed apart in the source
Description: Antimicrobial activity against multidrug resistant Escherichia coli DH5[alpha] harboring pDrive plasmid expressing ampC gene by broth dilution method

Escherichia coli [52] = assay: microbe, parasite or virus in culture; settings: DH5[alpha]; remark: listed apart in the source
Description: Antimicrobial activity against multidrug resistant Escherichia coli DH5[alpha] harboring pACM204 plasmid by broth dilution method

Escherichia coli [53] = assay: microbe, parasite or virus in culture; settings: ATCC 35218
Description: Antimicrobial activity against multidrug resistant Escherichia coli ATCC 35218 harboring pDrive plasmid by broth dilution method

Escherichia coli [54] = assay: microbe, parasite or virus in culture; settings: ATCC 35218; remark: listed apart in the source
Description: Antimicrobial activity against multidrug resistant Escherichia coli ATCC 35218 harboring pDrive plasmid expressing ampC gene by broth dilution method

Question: With `CO/N=C(\C(=O)N[C@@H]1C(=O)N2C(C(=O)[O-])=C(C[N+]3(C)CCCC3)CS[C@H]12)c1csc(N)n1` as the compound, how does the MIC (Klebsiella aerogenes [1]) read?
Answer: Its MIC is 32 µg/mL (≈ 66.6 µM).

Question: And the MIC (Klebsiella aerogenes [2])?
Answer: The MIC was 32 µg/mL (≈ 66.6 µM).

Question: What about the MIC (Klebsiella aerogenes [3]) of the same compound?
Answer: Its MIC is 16 µg/mL (≈ 33.3 µM).

Question: What about the MIC (Klebsiella aerogenes [4]) of the same compound?
Answer: The MIC was 32 µg/mL (≈ 66.6 µM).

Question: What about the MIC (Klebsiella aerogenes [5]) of the same compound?
Answer: Its MIC is 64 µg/mL (≈ 133 µM).

Question: And the MIC (Klebsiella aerogenes [6])?
Answer: Its MIC is 4 µg/mL (≈ 8.32 µM).

Question: And the MIC (Klebsiella aerogenes [7])?
Answer: The MIC was 64 µg/mL (≈ 133 µM).

Question: What about the MIC (Klebsiella aerogenes [8]) of the same compound?
Answer: The MIC was 64 µg/mL (≈ 133 µM).

Question: What about the MIC (Klebsiella aerogenes [9]) of the same compound?
Answer: Its MIC is 32 µg/mL (≈ 66.6 µM).

Question: What about the MIC (Klebsiella aerogenes [10]) of the same compound?
Answer: Its MIC is 16 µg/mL (≈ 33.3 µM).

Question: What about the MIC (Klebsiella aerogenes [11]) of the same compound?
Answer: Its MIC is 64 µg/mL (≈ 133 µM).

Question: What about the MIC (Klebsiella aerogenes [12]) of the same compound?
Answer: Its MIC is 128 µg/mL (≈ 266 µM).

Question: What about the MIC (Klebsiella aerogenes [13]) of the same compound?
Answer: The MIC was 64 µg/mL (≈ 133 µM).

Question: What about the MIC (Klebsiella aerogenes [14]) of the same compound?
Answer: The MIC was 64 µg/mL (≈ 133 µM).

Question: What about the MIC (Klebsiella aerogenes [15]) of the same compound?
Answer: The MIC was 16 µg/mL (≈ 33.3 µM).

Question: What about the MIC (Klebsiella aerogenes [16]) of the same compound?
Answer: Its MIC is 64 µg/mL (≈ 133 µM).

Question: And the MIC (Klebsiella aerogenes [17])?
Answer: The MIC was 64 µg/mL (≈ 133 µM).

Question: What about the MIC (Klebsiella aerogenes [18]) of the same compound?
Answer: Its MIC is 32 µg/mL (≈ 66.6 µM).

Question: What about the MIC (Klebsiella aerogenes [19]) of the same compound?
Answer: Its MIC is 64 µg/mL (≈ 133 µM).

Question: And the MIC (Klebsiella aerogenes [20])?
Answer: Its MIC is 64 µg/mL (≈ 133 µM).

Question: And the MIC (Klebsiella aerogenes [21])?
Answer: The MIC was 128 µg/mL (≈ 266 µM).

Question: What about the MIC (Klebsiella aerogenes [22]) of the same compound?
Answer: The MIC was 64 µg/mL (≈ 133 µM).

Question: What about the MIC (Klebsiella aerogenes [23]) of the same compound?
Answer: The MIC was 64 µg/mL (≈ 133 µM).

Question: What about the MIC (Klebsiella aerogenes [24]) of the same compound?
Answer: Its MIC is 128 µg/mL (≈ 266 µM).

Question: And the MIC (Klebsiella aerogenes [25])?
Answer: The MIC was 64 µg/mL (≈ 133 µM).

Question: What about the MIC (Klebsiella aerogenes [26]) of the same compound?
Answer: The MIC was 2 µg/mL (≈ 4.16 µM).

Question: And the MIC (Klebsiella aerogenes [27])?
Answer: The MIC was 128 µg/mL (≈ 266 µM).

Question: What about the MIC (Klebsiella pneumoniae [28]) of the same compound?
Answer: Its MIC is 0.125 µg/mL (≈ 0.26 µM).

Question: And the MIC (Klebsiella pneumoniae [29])?
Answer: Its MIC is 64 µg/mL (≈ 133 µM).

Question: What about the MIC (Klebsiella pneumoniae [30]) of the same compound?
Answer: Its MIC is 64 µg/mL (≈ 133 µM).

Question: And the MIC (Klebsiella pneumoniae [31])?
Answer: The MIC was 64 µg/mL (≈ 133 µM).

Question: And the MIC (Klebsiella pneumoniae [32])?
Answer: Its MIC is 64 µg/mL (≈ 133 µM).

Question: And the MIC (Klebsiella pneumoniae [33])?
Answer: Its MIC is 64 µg/mL (≈ 133 µM).

Question: And the MIC (Klebsiella pneumoniae [34])?
Answer: The MIC was 16 µg/mL (≈ 33.3 µM).

Question: What about the MIC (Klebsiella pneumoniae [35]) of the same compound?
Answer: Its MIC is 64 µg/mL (≈ 133 µM).

Question: What about the MIC (Klebsiella pneumoniae [36]) of the same compound?
Answer: Its MIC is 64 µg/mL (≈ 133 µM).

Question: What about the MIC (Klebsiella pneumoniae [37]) of the same compound?
Answer: Its MIC is 64 µg/mL (≈ 133 µM).

Question: What about the MIC (Klebsiella pneumoniae [38]) of the same compound?
Answer: The MIC was 64 µg/mL (≈ 133 µM).

Question: And the MIC (Klebsiella pneumoniae [39])?
Answer: Its MIC is 64 µg/mL (≈ 133 µM).

Question: And the MIC (Klebsiella pneumoniae [40])?
Answer: Its MIC is 16 µg/mL (≈ 33.3 µM).

Question: What about the MIC (Klebsiella pneumoniae [41]) of the same compound?
Answer: Its MIC is 2 µg/mL (≈ 4.16 µM).

Question: What about the MIC (Klebsiella pneumoniae [42]) of the same compound?
Answer: Its MIC is 32 µg/mL (≈ 66.6 µM).

Question: And the MIC (Klebsiella pneumoniae [43])?
Answer: Its MIC is 64 µg/mL (≈ 133 µM).

Question: And the MIC (Klebsiella aerogenes [44])?
Answer: Its MIC is 0.03 µg/mL (≈ 0.0624 µM).

Question: And the MIC (Klebsiella aerogenes [45])?
Answer: The MIC was 0.25 µg/mL (≈ 0.52 µM).

Question: And the MIC (Klebsiella aerogenes [46])?
Answer: The MIC was 0.25 µg/mL (≈ 0.52 µM).

Question: What about the MIC (Klebsiella aerogenes [47]) of the same compound?
Answer: Its MIC is 32 µg/mL (≈ 66.6 µM).

Question: What about the MIC (Escherichia coli [48]) of the same compound?
Answer: The MIC was 0.03 µg/mL (≈ 0.0624 µM).

Question: And the MIC (Escherichia coli [49])?
Answer: The MIC was 0.125 µg/mL (≈ 0.26 µM).

Question: And the MIC (Escherichia coli [50])?
Answer: Its MIC is 0.5 µg/mL (≈ 1.04 µM).

Question: What about the MIC (Escherichia coli [51]) of the same compound?
Answer: Its MIC is 32 µg/mL (≈ 66.6 µM).

Question: What about the MIC (Escherichia coli [52]) of the same compound?
Answer: Its MIC is 0.25 µg/mL (≈ 0.52 µM).

Question: What about the MIC (Escherichia coli [53]) of the same compound?
Answer: The MIC was 0.5 µg/mL (≈ 1.04 µM).

Question: What about the MIC (Escherichia coli [54]) of the same compound?
Answer: The MIC was 32 µg/mL (≈ 66.6 µM).

Source: ChEMBL document CHEMBL1649134, “Occurrence of efflux mechanism and cephalosporinase variant in a population of Enterobacter aerogenes and Klebsiella pneumoniae isolates producing extended-spectrum beta-lactamases” (2009)
